Assay results: patent US20250382332A1, “NOVEL ALPHA-FACTOR BASED PEPTIDES WITH ANTIFUNGAL ACTIVITY” (INVAIO SCIENCES, INC., priority 2024, published 2025)
Peptide text beside a SMILES is read from it.

Key:
[1] = system: Botrytis cinerea (B05.10); assay: Resazurin antifungal assay of 23 alpha-factor peptides (dimers, hybrids) towards Botrytis (Example 15, Table 6); format: cell-based; design: key to active against Botrytis at 2.5 μM: Peptides that showed greater than 90% inhibition were considered active against Botrytis; conditions: for active against Botrytis at 2.5 μM / Inhibition at 2.5 μM: peptide 2.5 μM; for Inhibition at 2.5 μM / Inhibition at 5 μM / Inhibition at 10 μM / Inhibition at 20 μM / Inhibition at 50 μM: resazurin assay, % inhibition of fungal growth, Botrytis cinerea B05.10; for Inhibition at 5 μM: peptide 5 μM; for Inhibition at 10 μM: peptide 10 μM; for Inhibition at 20 μM: peptide 20 μM; for Inhibition at 50 μM: peptide 50 μM
Description: The antifungal activity of […] alpha-factor peptide variants towards Botrytis was tested. Experimental design:
Peptides corresponding to SEQ ID NO: 261-264 and 401-420 were chemically synthesized using the solid-phase synthesis method and resuspended in water to a stock solution of 1 mM. The stock solution was aliquoted in cryovials and stored at −80° C.
The Botrytis cinerea culture (B05.10) isolate was acquired from the Centraalbureau voor Schimmelcultures, the Netherlands. The Botrytis fungus was propagated on 0.5% V8 agar plates (200 ml V8 Juice, 3 g CaCO3, 15 g agar, 800-ml millipore water) at 20° C., in a 12 h photoperiod for 21 days.
Fungal conidia were harvested by scraping a Botrytis plate flooded with 1 ml water with 0.1% Tween 80 solution. Conidia were then collected in a 50 ml falcon tube by passing the solution through a 40 micron filter. The solution was then centrifuged at 6000 rpm and the pellet was resuspended in 1 ml of 20% glycerol. The conidia concentration of the resulting solution was counted using a hemocytometer. The stock was diluted to […] using 20% glycerol and frozen in 100 μl aliquots in −80° C. until further use.
Peptides were tested for activity against Botrytis, using the resazurin assay. For this, fungal stock conidia was first diluted to 5000 conidia/well. 50 μl of the spore suspension was added to each well of the sterile 96-well clear bottom testing plate and mixed with 50 μl of peptide solutions to a final concentration of 100, 50, 20, 10, 5 and 2.5 μM. The plate was incubated for 24 h at 20° C. After 24 h, 10 μl of resazurin dye was added to the microtiter plate and incubated again for […]. Fluorescence was measured at 570/620 nm after 4 h of incubation with resazurin.
Growth inhibition was calculated by subtracting the fluorescence values of conidia only wells from sample wells and depicted as % inhibition of fungal growth. Four technical replicates were used for all treatments.

[2] = system: Botrytis cinerea (B05.10); assay: Resazurin antifungal assay of 180 alpha-factor peptide variants towards Botrytis (Example 2); format: cell-based; conditions: % inhibition of fungal growth, Botrytis conidia, resazurin; for Inhibition at 10 μM: peptide 10 μM; for Inhibition at 20 μM: peptide 20 μM; for Inhibition at 50 μM: peptide 50 μM; for Inhibition at 100 μM: peptide 100 μM
Outline: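 B. cinerea B05.10 conidia (5000/well) were exposed to peptides at 100, 50, 20, 15 and 10 μM final for 24 h at 20° C. Resazurin was then added and fluorescence read at 570/620 nm. Percent growth inhibition was calculated against conidia-only wells, with four technical replicates.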

SMILES | active against Botrytis at 2.5 μM [1] | Inhibition at 2.5 μM [1] [%] | Inhibition at 5 μM [1] [%] | Inhibition at 10 μM [1] [%] | Inhibition at 20 μM [1] [%] | Inhibition at 50 μM [1] [%] | Inhibition at 10 μM [2] [%] | Inhibition at 20 μM [2] [%] | Inhibition at 50 μM [2] [%] | Inhibition at 100 μM [2] [%]
CSCC[C@H](NC(=O)[C@@H]1CCCN1C(=O)[C@H](CCC(N)=O)NC(=O)CNC(=O)[C@H](C)NC(=O)[C@H](CCCNC(=N)N)NC(=O)[C@H](CC(C)C)NC(=O)[C@H](CCCNC(=N)N)NC(=O)CNC(=O)[C@H](Cc1c[nH]c2ccccc12)NC(=O)[C@H](Cc1c[nH]cn1)NC(=O)[C@@H](N)CCCCN)C(=O)N[C@@H](Cc1ccc(O)cc1)C(=O)NCC(=O)NCC(=O)NCC(=O)NCC(=O)N[C@@H](CCCCN)C(=O)N[C@@H](CCCCN)C(=O)N[C@@H](CCCCN)C(=O)N[C@@H](CCCCN)C(=O)N[C@@H](CCCCN)C(=O)N[C@@H](CCCCN)C(=O)N[C@@H](CCCCN)C(=O)N[C@@H](CCCCN)C(=O)O [compound 263] (H-KHWGRLRAGQPMYGGGGKKKKKKKK-OH; N-terminus and C-terminus assumed) | active | 99.7 | 100 | 100 | 100 | 100 |  |  |  | 
CC[C@H](C)[C@H](NC(=O)[C@H](Cc1c[nH]cn1)NC(=O)[C@@H](N)CCCCN)C(=O)N[C@@H](CC(C)C)C(=O)N[C@@H](CCCCN)C(=O)N[C@@H](Cc1ccccc1)C(=O)N[C@@H](CCCCN)C(=O)N1CCC[C@H]1C(=O)NCC(=O)N[C@@H](CCC(N)=O)C(=O)N1CCC[C@H]1C(=O)N[C@@H](CCSC)C(=O)N[C@@H](Cc1ccc(O)cc1)C(=O)O [compound 402] (H-KHILKFKPGQPMY-OH; N-terminus and C-terminus assumed) |  | <90 | <90 | 96.2 | 100 | 100 |  |  |  | 
CSCC[C@H](NC(=O)[C@@H]1CCCN1C(=O)[C@H](CCC(N)=O)NC(=O)CNC(=O)[C@H](C)NC(=O)[C@H](CCCNC(=N)N)NC(=O)[C@H](CC(C)C)NC(=O)[C@H](CCCNC(=N)N)NC(=O)CNC(=O)[C@H](Cc1c[nH]c2ccccc12)NC(=O)[C@H](Cc1c[nH]cn1)NC(=O)[C@@H](N)CCCCN)C(=O)N[C@@H](Cc1ccc(O)cc1)C(=O)NCC(=O)NCC(=O)NCC(=O)NCC(=O)N[C@@H](CCCNC(=N)N)C(=O)N[C@@H](CCCNC(=N)N)C(=O)N[C@@H](CCCNC(=N)N)C(=O)N[C@@H](CCCNC(=N)N)C(=O)N[C@@H](CCCNC(=N)N)C(=O)N[C@@H](CCCNC(=N)N)C(=O)N[C@@H](CCCNC(=N)N)C(=O)N[C@@H](CCCNC(=N)N)C(=O)O [compound 262] (H-KHWGRLRAGQPMYGGGGRRRRRRRR-OH; N-terminus and C-terminus assumed) | active | 99.8 | 100 | 100 | 100 | 100 |  |  |  | 
CSCC[C@H](NC(=O)[C@@H]1CCCN1C(=O)[C@H](CCC(N)=O)NC(=O)CNC(=O)[C@H](CCCNC(=N)N)NC(=O)[C@H](CC(=O)O)NC(=O)[C@H](CC(C)C)NC(=O)[C@H](CCC(N)=O)NC(=O)[C@H](CC(C)C)NC(=O)[C@H](Cc1c[nH]c2ccccc12)NC(=O)[C@H](CCC(N)=O)NC(=O)[C@@H](N)Cc1c[nH]c2ccccc12)C(=O)N[C@@H](Cc1ccc(O)cc1)C(=O)O [compound 406] (H-WQWLQLDRGQPMY-OH; N-terminus and C-terminus assumed) |  |  |  |  |  | <90 |  |  |  | 
CC[C@H](C)[C@H](NC(=O)[C@H](CCC(N)=O)NC(=O)[C@H](CC(C)C)NC(=O)[C@H](CO)NC(=O)[C@H](Cc1c[nH]cn1)NC(=O)[C@@H](N)Cc1c[nH]c2ccccc12)C(=O)N[C@@H](CCCCN)C(=O)N[C@@H](CCCCN)C(=O)NCC(=O)N[C@@H](CCC(N)=O)C(=O)N1CCC[C@H]1C(=O)N[C@@H](CCSC)C(=O)N[C@@H](Cc1ccc(O)cc1)C(=O)O [compound 407] (H-WHSLQIKKGQPMY-OH; N-terminus and C-terminus assumed) |  |  |  | <90 | <90 | 100 |  |  |  | 
CSCC[C@H](NC(=O)[C@@H]1CCCN1C(=O)[C@H](CCC(N)=O)NC(=O)CNC(=O)[C@H](C)NC(=O)[C@H](CCCNC(=N)N)NC(=O)[C@H](CC(C)C)NC(=O)[C@H](CCCNC(=N)N)NC(=O)CNC(=O)[C@H](Cc1c[nH]c2ccccc12)NC(=O)[C@H](Cc1c[nH]cn1)NC(=O)[C@H](CCCCN)NC(=O)CNC(=O)CNC(=O)CNC(=O)CNC(=O)[C@H](Cc1ccc(O)cc1)NC(=O)[C@H](CCSC)NC(=O)[C@@H]1CCCN1C(=O)[C@H](CCC(N)=O)NC(=O)CNC(=O)[C@H](C)NC(=O)[C@H](CCCNC(=N)N)NC(=O)[C@H](CC(C)C)NC(=O)[C@H](CCCNC(=N)N)NC(=O)CNC(=O)[C@H](Cc1c[nH]c2ccccc12)NC(=O)[C@H](Cc1c[nH]cn1)NC(=O)[C@@H](N)CCCCN)C(=O)N[C@@H](Cc1ccc(O)cc1)C(=O)O [compound 261] (H-KHWGRLRAGQPMYGGGGKHWGRLRAGQPMY-OH; N-terminus and C-terminus assumed) |  | <90 | 99.3 | 100 | 100 | 100 |  |  |  | 
CSCC[C@H](NC(=O)[C@@H]1CCCN1C(=O)[C@H](CCC(N)=O)NC(=O)CNC(=O)[C@@H]1CCCN1C(=O)[C@H](CCCNC(=N)N)NC(=O)[C@H](Cc1ccccc1)NC(=O)[C@H](CCCNC(=N)N)NC(=O)[C@H](CC(C)C)NC(=O)[C@H](Cc1c[nH]c2ccccc12)NC(=O)[C@H](Cc1c[nH]cn1)NC(=O)[C@@H](N)CCCCN)C(=O)N[C@@H](Cc1ccc(O)cc1)C(=O)O [compound 410] (H-KHWLRFRPGQPMY-OH; N-terminus and C-terminus assumed) |  |  |  | <90 | 100 | 100 |  |  |  | 
CSCC[C@H](NC(=O)[C@@H]1CCCN1C(=O)[C@H](CCC(N)=O)NC(=O)CNC(=O)[C@@H]1CCCN1C(=O)[C@H](Cc1c[nH]c2ccccc12)NC(=O)[C@H](CC(C)C)NC(=O)[C@H](CCCNC(=N)N)NC(=O)[C@H](CC(C)C)NC(=O)[C@H](CO)NC(=O)[C@H](Cc1c[nH]cn1)NC(=O)[C@@H](N)CCCCN)C(=O)N[C@@H](Cc1ccc(O)cc1)C(=O)O [compound 404] (H-KHSLRLWPGQPMY-OH; N-terminus and C-terminus assumed) |  |  |  | <90 | <90 | 100 |  |  |  | 
CC[C@H](C)[C@H](NC(=O)[C@H](CCC(N)=O)NC(=O)[C@H](CC(C)C)NC(=O)[C@H](Cc1c[nH]c2ccccc12)NC(=O)[C@H](Cc1c[nH]cn1)NC(=O)[C@@H](N)CCCCN)C(=O)N[C@@H](CCCCN)C(=O)N[C@@H](Cc1ccc(O)cc1)C(=O)NCC(=O)N[C@@H](CCC(=O)O)C(=O)N1CCC[C@H]1C(=O)N[C@@H](CCSC)C(=O)N[C@@H](Cc1ccc(O)cc1)C(=O)O [compound 7] (H-KHWLQIKYGEPMY-OH; N-terminus and C-terminus assumed) |  |  |  |  |  |  | <90 | <90 | 100 | 100
CSCC[C@H](NC(=O)[C@@H]1CCCN1C(=O)[C@H](CCC(N)=O)NC(=O)CNC(=O)[C@@H]1CCCN1C(=O)[C@H](CCCCN)NC(=O)[C@H](CC(C)C)NC(=O)[C@H](CCCCN)NC(=O)[C@H](CC(C)C)NC(=O)[C@H](CC(=O)O)NC(=O)CNC(=O)[C@@H](N)Cc1c[nH]c2ccccc12)C(=O)N[C@@H](Cc1ccc(O)cc1)C(=O)O [compound 134] (H-WGDLKLKPGQPMY-OH; N-terminus and C-terminus assumed) |  |  |  |  |  |  |  |  | <90 | <90
CSCC[C@H](NC(=O)[C@@H]1CCCN1C(=O)[C@H](CCC(N)=O)NC(=O)CNC(=O)[C@H](CCCCN)NC(=O)[C@H](CCCCN)NC(=O)[C@H](Cc1ccccc1)NC(=O)[C@H](CO)NC(=O)CNC(=O)[C@H](Cc1c[nH]c2ccccc12)NC(=O)[C@H](Cc1c[nH]cn1)NC(=O)[C@@H]1CCCN1)C(=O)N[C@@H](Cc1ccc(O)cc1)C(=O)O [compound 2] (H-PHWGSFKKGQPMY-OH; N-terminus and C-terminus assumed) |  |  |  |  |  |  | <90 | <90 | 100 | 100
